According to the supplement of paper PMC10307832:

Columns and labels:
Assay in all cases: relative viability (nuclei count vs DMSO), 5 days (fraction); higher = more cells survive
Cediranib + Pemetrexed = compound: COc1cc2c(Oc3ccc4[nH]c(C)cc4c3F)ncnc2cc1OCCCN1CCCC1 [Cediranib] + Nc1nc2[nH]cc(CCc3ccc(C(=O)N[C@@H](CCC(=O)O)C(=O)O)cc3)c2c(=O)[nH]1 [Pemetrexed] (partner 0.2 µM)
Procedure, shortened: (§1)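 Lung cancer cell lines were seeded in 1536-well plates and dosed by pin tool the next day, with either a single drug or a fixed anchor-drug dose combined with five library-drug doses (not always all listed) spaced in √10 steps. Five days later, one step fixed the cells and stained their nuclei (final 0.05% Triton X-100, 1% formaldehyde, 1 ug/ml Hoechst), and nuclei were counted on 4× images. Relative viability is the nuclei count in treated wells divided by the count in vehicle wells, and each value is the median of duplicate plates.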

[1] = compound: O=C(C[C@H]1NCCC[C@@H]1O)Cn1cnc2cc(Br)c(Cl)cc2c1=O (racemic) [Halofuginone] + CC(C)C[C@H](NC(=O)[C@H](Cc1ccccc1)NC(=O)c1cnccn1)B(O)O [Bortezomib] (partner 0.002 µM)
Procedure, shortened: as §1

Cediranib + Pictilisib = compound: COc1cc2c(Oc3ccc4[nH]c(C)cc4c3F)ncnc2cc1OCCCN1CCCC1 [Cediranib] + CS(=O)(=O)N1CCN(Cc2cc3nc(-c4cccc5[nH]ncc45)nc(N4CCOCC4)c3s2)CC1 [Pictilisib] (partner 1 µM)
Procedure, shortened: as §1

Cediranib + Bortezomib = compound: COc1cc2c(Oc3ccc4[nH]c(C)cc4c3F)ncnc2cc1OCCCN1CCCC1 [Cediranib] + CC(C)C[C@H](NC(=O)[C@H](Cc1ccccc1)NC(=O)c1cnccn1)B(O)O [Bortezomib] (partner 0.002 µM)
Procedure, shortened: as §1

Row | Cell Line | relative viability (Cediranib + Pemetrexed; first compound 0.04 µM) | relative viability (Cediranib + Pemetrexed; first compound 0.1265 µM) | relative viability (Cediranib + Pemetrexed; first compound 0.4 µM) | relative viability (Cediranib + Pemetrexed; first compound 1.265 µM) | relative viability (Cediranib + Pemetrexed; first compound 4 µM) | relative viability ([1]; first compound 0.001 µM) | relative viability ([1]; first compound 0.003162 µM) | relative viability ([1]; first compound 0.01 µM) | relative viability ([1]; first compound 0.03162 µM) | relative viability ([1]; first compound 0.1 µM) | relative viability (Cediranib + Pictilisib; first compound 0.1265 µM) | relative viability (Cediranib + Pictilisib; first compound 0.4 µM) | relative viability (Cediranib + Pictilisib; first compound 1.265 µM) | relative viability (Cediranib + Pictilisib; first compound 4 µM) | relative viability (Cediranib + Bortezomib; first compound 0.1265 µM) | relative viability (Cediranib + Bortezomib; first compound 0.4 µM) | relative viability (Cediranib + Bortezomib; first compound 1.265 µM) | relative viability (Cediranib + Bortezomib; first compound 4 µM) | relative viability (Cediranib + Pictilisib; first compound 0.04 µM) | relative viability (Cediranib + Bortezomib; first compound 0.04 µM)
1 | COR-L 105 | 1.11 | 1.08 | 1.06 | 1.08 | 1.15 | 1.01 | 0.86 | 0.769 | 0.674 | 0.44 | 0.434 | 0.332 | 0.376 | 0.403 | 0.666 | 0.715 | 0.722 | 0.828 |  | 
2 | ChaGo-K-1 | 0.262 | 0.261 | 0.297 | 0.252 | 0.263 | 0.996 | 0.875 | 0.948 | 1.05 | 0.91 |  | 0.7 | 0.852 | 0.639 |  | 0.994 | 1.04 | 0.861 | 0.805 | 1.03
3 | EKVX | 0.512 | 0.412 | 0.384 |  | 0.441 | 1.15 | 1.02 | 1.05 | 1.01 | 0.935 | 0.563 | 0.427 | 0.487 | 0.383 | 0.892 | 0.975 | 0.939 | 0.865 | 0.408 | 1.12
4 | EMC-BAC-2 | 0.565 | 0.47 | 0.433 | 0.464 | 0.477 | 1.1 | 1.09 | 1.08 | 1.02 | 0.986 | 0.54 | 0.538 | 0.443 | 0.555 | 0.69 | 1.03 | 1.02 | 1.07 | 0.568 | 1.06
5 | EPLC-272H | 0.361 | 0.345 | 0.375 | 0.37 | 0.282 | 0.772 | 1.09 | 0.918 | 0.98 | 0.779 |  | 0.346 | 0.305 | 0.248 |  | 0.923 | 0.794 | 0.949 | 0.322 | 0.997
6 | H3255 | 0.588 | 0.542 | 0.567 | 0.533 | 0.54 | 0.906 | 0.664 | 0.616 | 0.767 | 0.651 | 0.525 | 0.409 | 0.494 | 0.446 | 0.842 | 0.776 | 0.731 | 0.814 | 0.533 | 0.808
7 | HARA | 0.194 | 0.248 | 0.28 | 0.303 | 0.299 | 1.12 | 1.03 | 1.09 | 1.15 | 1.14 | 0.684 | 0.393 | 0.481 | 0.37 | 1.01 | 1.11 | 1.14 | 1.07 | 0.269 | 1.18
8 | HCC-15 | 0.209 | 0.222 | 0.226 | 0.218 | 0.22 | 1.02 | 1.14 | 1.05 | 1.03 | 0.952 |  | 0.699 | 0.686 | 0.987 |  | 1 | 1.12 | 1.01 | 0.602 | 1.06
9 | HCC-44 | 0.695 | 0.589 | 0.637 | 0.656 | 0.682 | 0.926 | 0.848 | 0.794 | 0.802 | 0.575 |  | 0.552 | 0.669 | 0.714 |  | 0.873 | 0.932 | 0.975 | 0.589 | 0.825
10 | HCC-78 | 0.912 | 0.879 | 0.901 | 0.899 | 0.901 | 0.653 | 0.42 | 0.445 | 0.543 | 0.369 | 0.204 | 0.21 | 0.174 | 0.187 | 0.576 | 0.504 | 0.533 | 0.601 | 0.24 | 0.51
11 | HCC-366 | 0.491 | 0.161 | 0.149 | 0.18 | 0.173 | 0.948 | 1.06 | 1.04 | 0.994 | 0.397 | 0.148 | 0.127 | 0.0996 | 0.17 | 1.03 | 0.963 | 0.888 | 1.22 | 0.138 | 0.968
12 | HCC-827 | 0.31 | 0.235 | 0.231 | 0.259 | 0.259 | 1.04 | 1.03 | 0.955 | 0.998 | 0.918 |  | 0.955 | 0.944 | 0.97 |  | 0.967 | 1.11 | 1.08 | 1.1 | 1.03
13 | HOP-62 | 0.576 | 0.305 | 0.252 | 0.39 | 0.313 | 0.679 | 0.702 | 0.62 | 0.632 | 0.522 |  | 0.578 | 0.413 | 1.16 |  | 0.672 | 0.68 | 0.842 | 0.813 | 0.322
14 | LC-2-ad | 0.289 | 0.3 | 0.278 | 0.298 | 0.275 | 1.3 | 1.08 | 0.972 | 1.01 | 0.667 | 0.567 | 0.411 | 0.395 | 0.201 | 1.04 | 0.973 | 1.03 | 0.959 | 0.655 | 1.09
15 | LCLC-97TM1 | 0.205 |  | 0.154 | 0.218 | 0.177 | 0.49 | 0.365 | 0.512 | 0.144 | 0.179 |  | 0.168 | 0.122 | 0.248 |  | 0.643 | 0.769 | 0.578 | 0.174 | 0.351
16 | LCLC-103H | 0.502 | 0.477 | 0.514 | 0.427 | 0.475 | 1.06 | 0.9 | 1.1 | 0.956 | 1.03 | 0.754 | 0.619 | 0.654 | 0.56 | 1.12 | 0.921 | 1.14 | 1.11 | 0.63 | 0.989
17 | LOU-NH91 | 0.447 | 0.347 | 0.357 | 0.337 | 0.36 | 0.461 | 0.498 | 0.484 | 0.459 | 0.535 | 0.473 | 0.494 | 0.479 | 0.495 | 0.475 | 0.517 | 0.513 | 0.488 | 0.534 | 0.409
